Literature values as cited in patent US5900414A, “Methods for administering integrin receptor antagonists” (Merck & Co., Inc., priority 1997, dated 1999).
Positions of bridges follow the written chain, without caps; N, C: chain ends. Non-standard residues stand in square brackets, D forms with d. Residues, ends and D or L forms follow the SMILES beside them. hArg = N=C(N)NCCCC[C@H](N)C(=O)O; Mpa = O=C(O)CCS

What was measured:
[1] = prodrug

**Q.** With `N=C(N)c1ccc(C(=O)N[C@@H](Cc2ccc(O)cc2)C(=O)N2CCC(OCC(=O)O)CC2)cc1` [Ro 44-9883] as the molecule, how does the “selectivity for GPIIb/IIIa” value (GPIIb/IIIa) read?
**A.** selective for GPIIb/IIIa

**Q.** Which results are given for `N=C(N)NCCCC[C@@H]1NC(=O)CCSSC[C@@H](C(N)=O)NC(=O)[C@@H]2CCCN2C(=O)[C@H](Cc2c[nH]c3ccccc23)NC(=O)[C@H](CC(=O)O)NC(=O)CNC1=O` [Integrilin] ([Mpa][hArg]GDWPC-NH2; disulfide 1-7)?
**A.** ligand binding to GPIIa/IIIa (GPIIa/IIIa): inhibits ligand binding; effect on ligand binding to αv β3 (αv β3): very little effect

**Q.** With `C#C[C@H](CC(=O)OCC)NC(=O)CCC(=O)Nc1ccc(C(=N)N)cc1` [SC54684] as the molecule, how does the oral bioavailability [1] read?
**A.** high oral bioavailability

**Q.** For `CCCCS(=O)(=O)N[C@@H](Cc1ccc(OCCCCC2CCNCC2)cc1)C(=O)O` [MK-383], which “selectivity for GPIIb/IIIa” value (GPIIb/IIIa) is on record?
**A.** selective for GPIIb/IIIa
